This note sets out measurements from ChEMBL document CHEMBL1158322, “New Terpenylated Dihydrochalcone Derivatives Isolated from Mitrella kentii” (J Nat Prod, 1997).

The structures appear in SMILES notation. In brackets after ≈: the same amount, converted by molar mass.

The assay concerns NSCLC. Put plainly: Cytotoxicity against human NSCLC cells by MTT assay. In kind it is functional, cell-based. In general terms: Tetrazolium assays rely on reduction of a dye to a coloured formazan, in cell work by metabolically active cells.

As a reminder, the IC50 is the concentration that inhibits the measured activity by half. High values mean weaker potency, low ones greater potency. With `CC1=C[C@H](c2c(O)cc(O)c(C(=O)CCc3ccccc3)c2O)[C@@H](C(C)C)CC1`, the IC50 is greater than 30 µg/mL.
The result for `CC1=C[C@H](c2c(O)c(C(=O)CCc3ccccc3)c(O)c([C@H]3C=C(C)CC[C@@H]3C(C)C)c2O)[C@@H](C(C)C)CC1` reads greater than 30 µg/mL; that for `CC1=C[C@H](c2c(O)cc(O)c(C(=O)CCc3ccccc3)c2O)[C@H](C(C)C)CC1` [LINDERATIN], 3.8 µg/mL (≈ 9.63 µM).
Regarding `CC1=C[C@H](c2c(O)c(C(=O)CCc3ccccc3)c(O)c([C@H]3C=C(C)CC[C@H]3C(C)C)c2O)[C@H](C(C)C)CC1` [NEOLINDERATIN], the IC50 is greater than 30 µg/mL.
